From PMC5052702 (Nature Communications, 2016) come the findings set out here.

Values joined by “and” are separate entries in the source; they are usually repeats but may differ in a detail not shown here. Equal values may be shown once. Read-outs that look alike come from different tables or passages of the source. Bounds are passed on as bounds.

In one assay the target is T1, CBV 3C protease (Coxsackievirus B3, UniProt P03313).
T1 construct: 3C protease of Coxsackie virus B3 consisting of 183 amino-acid residues; made in house; host or cells: E. coli BL21(DE3), plasmid pET-23a(+)
As to the kind of experiment: In vitro proteolytic activity assay (3 h incubation). The class given is biochemical, Coxsackie virus B3. Conditions: fixed enzyme concentration. Here is the method: (§1) A volume of 100 μl of reaction mixture containing 1.9 μM 3C protease, 25 μM substrate peptide, 5% DMSO, buffer (30 mM Tris pH 8.0, and 50 mM NaCl or 50 mM HEPES pH 7.4 and 50 mM NaCl) and (optionally) different concentrations of inhibitor was incubated in 37 °C during 3 h. The reaction was quenched by addition of 0.5% (final concentration) TFA. Samples were analysed by HPLC on SOURCE 15RPC ST 4.6/100 column using: 2–90% linear gradient of ACN in 0.1% TFA. The 3C protease activity in the absence of inhibitor was defined as 100%. The following peptides (GL Biochem, Shanghai, China) were dissolved in DMSO at a concentration of 5 mM and used for testing 3C proteases activity (Table 3).

Another assay deals with Trypsin. As to the kind of experiment: Side reactivity testing against different proteases. In kind it is biochemical. Conditions: 50 mM MOPS-NaOH pH 8.0 / 154 mM NaCl, 57 µM Boc-LGR-AMC as substrate. As to the method:
(§2) The four enzymes cover a broad range of S1-preferences, namely for arginine/lysine (trypsin, factor Xa), hydrophobic residues (chymotrypsin) and aspartate (caspase-3).
(§3) Supplementary Table 3. Side reactivity testing of selected compounds against different
Cpd# Structure Trypsin1) Chymotrypsin2) Human factor Xa3) Human Caspase-34)
1) in 50 mM MOPS-NaOH pH 8.0 / 154 mM NaCl with 57 µM tert. butyloxycarbonyl (Boc)-LGR-7-amino-4-
methylcoumarin (AMC) as substrate; […]

Another assay concerns the target HRV-A49 3C protease (Rhinovirus A49, UniProt A5GZE5). Nature of the assay: In vitro proteolytic activity assay (HPLC, 3 h incubation). In kind it is biochemical, human rhinovirus A49. As to the method: (§4) For 12 and 14, the inhibitory activity decreased for EV-B93>PSV-1>ERBV-1>AiV-1>EV-D68>HRV-A49.
as §1

In another assay the target is T2, CVB3 3C protease (Coxsackievirus B3, UniProt P03313).
T2 construct: 3C protease of Coxsackie virus B3 consisting of 183 amino-acid residues; made in house; host or cells: E. coli BL21(DE3), plasmid pET-23a(+)
As to the kind of experiment: FRET-based enzyme activity assay (warhead activation / inhibitor kinetics). As to conditions: for kinact/KI: relative inactivation rate, slope of kobs against inhibitor concentration. In kind it is biochemical, Coxsackie virus B3. As to the method:
The activity of the protease was measured by hydrolysis of the FRET-substrate N-Dabcyl-KTLEALFQ↓GPPVYE(Edans)-NH2. The peptide was purchased from Biosyntan (Berlin, Germany). Samples were irradiated with light with a wavelength of 355 nm and the emitted light at 538 nm was measured in relative fluorescence units (RFUs). An amount of 100 pmol of cleaved substrate equals 5,000 RFU.
Assay samples contained 10 μl of a 100 mM HEPES-NaOH buffer solution pH 7.5/1 mM EDTA, 10 μl enzyme solution (2 μM CVB3 3C^Pro), 10 μl of 10 μM substrate solution (both dissolved in the above buffer) and 1 μl Inhibitor and/or fragment dissolved in DMSO. For assay results of a dilution series of a mixture of 1 and 2 and comparison of reaction products in dependence of the assay solvent, see Supplementary Figs 1 and 2.
The screening procedure consisted of the following steps: 10 μl 100 mM HEPES-NaOH buffer solution pH 7.5/1 mM EDTA was placed in a cavity of the 384-well plate (polystyrene, Corning 3544). Then 10 μl of enzyme solution (40 μM CVB3 3C protease in 100 mM HEPES-NaOH buffer solution, pH 7.5/1 mM EDTA) was added and the plate was shaken for 2 min at 1,400 r.p.m. Afterwards, 0.5 μl of a DMSO solution of the electrophilic probe and 0.5 μl of a DMSO solution of the nucleophile was added, followed by 10 μl of substrate solution (10 μM in 100 mM HEPES-NaOH buffer solution, pH 7.5/1 mM EDTA). The plate was shaken again for 2 min at 1,400 r.p.m. and the generated fluorescence signal was measured with a Safire II Fluorimeter from Tecan. The electrophilic probe 1 was used at a concentration of 400 μM for the screening, which lowered the protease activity by 10–20%. Eight-hundred fifty primary amines were tested at a concentration of 320 μM and fragment 2 amplified the inhibitory activity of 1 most potently. Positive control samples contained only DMSO instead of the probe or the nucleophile. Negative control samples contained no active enzyme. An interfering fluorescent effect has not been observed.
When determining the inhibitory parameters of an inhibitor, the assay set-up was as mentioned but 1 μl DMSO solution of inhibitor was used instead of probe or nucleophile. Different concentrations of inhibitor were tested at least as duplicates and the pseudo-first-order association kinetics (kobs) were determined using GraphPad Prism. The slope of a plot of the different kobs values against the inhibitor concentration yielded kinact/KI.

In another assay the target is Human factor Xa (Homo sapiens, UniProt P00742). Nature of the assay: Side reactivity testing against different proteases. In kind it is biochemical. As to the method:
as §2, §3
(§5) Cpd# Structure Trypsin1) Chymotrypsin2) Human factor Xa3) Human Caspase-34) […]
3) in 50 mM MOPS-NaOH pH 8.0 / 154 mM NaCl with 114 µM Boc-LGR-AMC as substrate; […]

In a further assay the test system is Chymotrypsin. The description is as above. In kind it is biochemical. As to the method:
as §2, §3, §5
2) in 50 mM MOPS-NaOH pH 8.0 / 154 mM NaCl with 1.6 mM AF-AMC as substrate. […]

Another assay has as its target T3, Human Caspase-3 (Homo sapiens, UniProt P42574).
T3 sequence (P42574 29-175 limits assumed): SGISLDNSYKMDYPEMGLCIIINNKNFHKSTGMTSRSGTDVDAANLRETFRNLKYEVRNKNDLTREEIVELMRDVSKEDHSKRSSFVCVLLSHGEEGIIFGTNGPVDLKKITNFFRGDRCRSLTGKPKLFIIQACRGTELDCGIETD
T3 sequence (P42574 176-277 limits assumed): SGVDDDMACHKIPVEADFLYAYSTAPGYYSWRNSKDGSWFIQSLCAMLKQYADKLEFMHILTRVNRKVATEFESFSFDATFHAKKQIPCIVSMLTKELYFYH
Described as above. The class given is biochemical. As to the method: as §2, §3, §5
4) in 50 mM HEPES-NaOH pH 7.5 / 100 mM NaCl / 1 mM EDTA / 0.1% (w/v) CHAPS / 10% (v/v) glycerol /2 mM DTT
with 10 µM acetyl-DEVD-AMC as substrate;

A further assay has as its target EV-B93 3C protease (Enterovirus B93 (species Enterovirus B), UniProt Q5DSM6). As to the kind of experiment: In vitro proteolytic activity assay (HPLC, 3 h incubation). The class given is biochemical, human enterovirus B93. Here is the method: as §4, §1
Another assay addresses PSV-1 3C protease (Porcine sapelovirus 1, UniProt Q8JJT0). Described as above. The class given is biochemical. Here is the method: as §4, §1
A further assay has as its target ERBV-1 3C protease (Equine rhinitis B virus 1, UniProt Q66776). The assay is described as above. The class given is biochemical. Here is the method:
as §4, §1

Another assay addresses T4, EV-D68 3C protease (Human enterovirus D68, UniProt Q68T42).
T4 construct: a panel of six additional rhinoviral and enteroviral 3C proteases; purchased European Virus Archive
Described as above. In kind it is biochemical. Here is the method:
as §4, §1

The next assay addresses T5, AiV-1 3C protease (Aichi virus, UniProt O91464).
T5 construct: a panel of six additional rhinoviral and enteroviral 3C proteases; purchased European Virus Archive
The assay is described as above. In kind it is biochemical, Aichi virus 1. Here is the method: as §4, §1

For assay [1], the target named is T6, Coxsackie virus 3C protease (Coxsackievirus B3, UniProt P03313).
T6 construct: 3C protease of Coxsackie virus B3 consisting of 183 amino-acid residues; made in house; host or cells: E. coli BL21(DE3), plasmid pET-23a(+)
Nature of the assay: ESI-MS of protease after incubation with inhibitor (covalent modification). The class given is binding. As to conditions: deconvoluted ESI-MS, main peak. As to the method: This inactivation rate corresponded to an apparent half-maximal inhibitory concentration (IC50) value of >>1 mM after 10 min (Fig. 2b, Table 1). The covalent mode of action was confirmed by electrospray ionization high-resolution ion mobility spectrometry-mass spectrometry (ESI-MS) measurements. Incubation of the protease with warhead 1 shifted the main deconvoluted mass peak of the protein from 21,471.5 to 21,588.5 Da and the observed protein mass difference of 117 Da corresponded well with the molecular weight of bis-electrophile 1 after hydrolysis of the ethyl ester.
High-resolution mass spectra were recorded on a Synapt G2-S HDMS by Waters Co. (Milford, […]) equipped with an Acquity UPLC and a Phenomenex Jupiter C-18 column (3 × 250 mm, 5 μm, 300 Å). The ionization and transfer parameters of the MS system have been optimized for a standard sample (insulin) and were applied without modification. Deconvolution of measurement results was performed by the MaxEnt1 method of the MassLynx software by Waters Co. The most important source parameters are: capillary voltage: 3.3 kV, sampling cone: 40 V, source offset: 60 V, source temperature: 100 °C, desolvation temperature: 250 °C, desolvation gas flow: 600 l h^−1. […]

The mark [2] stands for this setting: fixed enzyme concentration, 3 h incubation.
Where [3] appears, read: protein inhibitor stoichiometries of 1:1 and 1:3.

Sequence of Human factor Xa (P00742 235-488 limits assumed): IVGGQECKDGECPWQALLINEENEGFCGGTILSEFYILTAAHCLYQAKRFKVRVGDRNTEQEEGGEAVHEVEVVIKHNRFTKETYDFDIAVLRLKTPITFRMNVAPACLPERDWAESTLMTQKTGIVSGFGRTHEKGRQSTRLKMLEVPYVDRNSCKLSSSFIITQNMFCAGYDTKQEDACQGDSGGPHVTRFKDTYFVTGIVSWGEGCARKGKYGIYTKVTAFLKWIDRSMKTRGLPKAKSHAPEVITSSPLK
Sequence of Human factor Xa (P00742 41-179 partner limits assumed): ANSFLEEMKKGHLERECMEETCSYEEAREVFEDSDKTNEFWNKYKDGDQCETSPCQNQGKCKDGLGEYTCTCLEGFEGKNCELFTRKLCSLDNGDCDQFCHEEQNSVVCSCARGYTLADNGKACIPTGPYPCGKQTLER

Turning to `O=C(/C=C/S(=O)(=O)c1ccccc1)Nc1cc(=O)[nH]n1C1CCCCCC1` [Compound 20], the IC50 on CBV 3C protease is 0.4 µM; with Trypsin it was over 500 µM; against HRV-A49 3C protease (setting [2]) it was 0.3 µM; against Human factor Xa (50 mM MOPS-NaOH pH 8.0 / 154 mM NaCl, 114 µM Boc-LGR-AMC as substrate), over 500 µM; in the assay on Chymotrypsin (50 mM MOPS-NaOH pH 8.0 / 154 mM NaCl, 1.6 mM AF-AMC as substrate) it was over 500 µM; against Human Caspase-3 (50 mM HEPES-NaOH pH 7.5, 10 µM acetyl-DEVD-AMC as substrate), over 300 µM. Further, the IC50 amounted to 0.2 µM against EV-B93 3C protease (setting [2]); 0.3 µM at PSV-1 3C protease (setting [2]); 0.5 µM at ERBV-1 3C protease (setting [2]); 1 µM at EV-D68 3C protease (fixed enzyme concentration, 3 h incubation, read-out: IC50 HEV-D68); 0.5 µM against AiV-1 3C protease (setting [2]). Besides, the “reduction of protease activity” value on HRV-A49 3C protease (setting [3]), on EV-B93 3C protease (setting [3]), on PSV-1 3C protease (setting [3]), at ERBV-1 3C protease (setting [3]), at EV-D68 3C protease (setting [3]) and on AiV-1 3C protease (setting [3]) was “strongly reduced the activity” in each case. The kinact/KI on CVB3 3C protease was 1,007 M^−1 s^−1 and 1,007.7±102.2 M^−1 s^−1; at CVB3 3C protease (read-out: kinact/KI), 1010 M⁻¹ s⁻¹. For the same compound, the “activity against factor Xa, in words” value at Human factor Xa (at concentrations of 100 μM) is “inactive”. In addition, the “activity against chymotrypsin, in words” value in the assay with Chymotrypsin (at concentrations of 100 μM) is “inactive”. In addition, at Human Caspase-3 (at concentrations of 100 μM), the “activity against caspase-3, in words” value is “inactive”. Further, at EV-B93 3C protease (one inhibitor equivalent), the “inhibition of the enzyme” value is on record as “fully inhibited”.

In the case of `CCOC(=O)[C@H]1O[C@@H]1C=O` [Compound 1, ethyl (2S,3S)-epoxy-4-oxo-butanoate], at CVB3 3C protease, the “inhibition of the protease, in words” value was “virtually inactive”; the kinact/KI is 2.36 M⁻¹ s⁻¹ and 2.4 ± 0.1 M⁻¹ s⁻¹. Besides, the IC50 on CVB3 3C protease (after 10 min, read-out: apparent half-maximal inhibitory concentration (IC50)) was over 1000 µM. For the same compound, the “lowering of protease activity” value at CVB3 3C protease (probe at 400 μM, screening) was 10–20%. In [1], the “observed protein mass difference after incubation” value was 117 Da.
